Results from US8772299B2, “Phenyl piperazine compounds, pharmaceutical composition including the same and use thereof” (SK Biopharmaceuticals Co., Ltd., priority 2008, dated 2014).
Structures can show the parent of a compound that is named as a salt.

How the values were obtained:
[1] = target: T1, Serotonin 1A (5-HT1A) receptor (Rattus norvegicus, UniProt P19327); test: Serotonin 1A (5-HT1A) receptor inhibition assay, [3H]8-OH-DPAT binding to rat cortex membranes; design: species or system Sprague-Dawley (SD) rats; conditions: 10 nM test compound; 0.92 nM [3H]8-OH-DPAT; rat cortex homogenate; 60 min at 25° C.
T1 construct: The cortex tissue were homogenized in 30 volumes of ice-cold 50 mM Tris-HCl buffer; from tissue; host or cells: Sprague-Dawley rat brain cortex membranes
T1 sequence (P19327 1-422): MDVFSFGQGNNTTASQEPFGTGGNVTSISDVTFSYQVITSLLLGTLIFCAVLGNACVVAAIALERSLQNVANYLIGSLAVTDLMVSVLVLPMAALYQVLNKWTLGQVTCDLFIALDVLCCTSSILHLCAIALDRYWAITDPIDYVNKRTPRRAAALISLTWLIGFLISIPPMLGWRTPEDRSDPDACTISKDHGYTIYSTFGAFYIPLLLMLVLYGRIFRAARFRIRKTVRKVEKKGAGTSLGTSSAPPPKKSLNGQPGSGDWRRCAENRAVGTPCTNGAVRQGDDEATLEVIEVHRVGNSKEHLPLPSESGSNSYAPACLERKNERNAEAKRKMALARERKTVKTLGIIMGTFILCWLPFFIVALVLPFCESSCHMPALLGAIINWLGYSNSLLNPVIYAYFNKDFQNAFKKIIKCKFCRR
Method: The method to test the ability of compounds to inhibit serotonin 1A(5-HT1A) receptors was using Hall. et al., J Neuro Chem., 1985, 44, p 1685-1696 with modification.
The Sprague-Dawley (SD) rats were killed by decapitation and their brains rapidly removed at 4° C. The cortex tissue were homogenized in 30 volumes of ice-cold 50 mM Tris-HCl buffer (pH7.4) using an ultra-turrax T8 and centrifuged at 48,000 g for 20 min. The supernatant was discarded and the pellet washed twice by resuspension in 20 volumes Tris-HCl and centrifugation, homogenized in 20 volumes Tris-HCl, and incubated at 37° C. for 10 min. Membranes were than collected by centrifugation and washed twice before final resuspension in 10 volumes of 50 mM Tris-HCl, pH7.4.
For binding assays, the incubation medium consisted of 162.5 ug of tissue homogenate, 0.92 nM of [3H]8-OH-DPAT and vehicle or 10 uM of 5-HT or 10 nM of test compounds per well. 5-HT and test compounds were dissolved in distilled water and incubation medium was 50 mM Tris(pH7.4 at room temperature). The assay plates (96 well) were incubated for 60 min at 25° C. The reaction was terminated by rapid filtration using a Tomtec harvester, through GF/C glassfibre filter with 5 times washes of Tris buffer. The radioactivity retained on the filters was counted by scintillation spectroscopy (MicroBeta TriLux, Wallac). The tests were triplicates. Percent inhibition was calculated as below equation.
Total binding is the value of vehicle treated group and specific binding is the values that deduct non-specific binding (i.e. the value of non-specific ligand, 5-HT).

mice [2] = test: Anti-Marble Burying Behavior Test in Mice; format: in vivo; conditions: Mus musculus, reduction in number of marbles buried, ip
Description: Marble burying was developed and validated as a pre-clinical assay of potential anxiolytic activity (Andrews and Broekkamp (1993). Procedures to Identify Anxiolytic or Anxiogenic agents. In Behavioural Neuroscience, ed. A Sahgal, pp. 37-54. IRL Press, Oxford). The marble burying test places a naive mouse into a novel environment containing 25 marbles (arranged on top of a sawdust surface). A reduction in the number of marbles buried by the mouse was hypothesized to be an anxiolytic-like effect.

mice [3] = test: Tail Suspension Test in Mice (TST); format: in vivo; conditions: Mus musculus, reduction in immobility vs control group, 1 mg/kg, po
Description: Tail Suspension Test in mice is the well-known animal model to determine antidepressant efficacy of compounds by checking escaping behavior and immobility time of mice. Mice treated with antidepressant drug show escaping behavior continuously comparing with control group.
The mice were mainly treated orally with the test compound dissolved in 30% PEG400 or with only 30% PEG400 as control. Tail of mouse is suspended to the rod of TST equipment and end of tail is fixed with sticky tape. Suspended mouse is incubated during 2 min for training and adaptation and after following 2 min, observe escaping behavior and check immobility time for 4 min. The potent ability of the compounds was determined as percent value of reduction in immobility comparing to control group as 100% baseline.

SMILES	inhibition at 0.01 µM [1] [%]	inhibition in vivo at 3 mg/kg (mice [2]) [%]	inhibition in vivo at 7.5 mg/kg (mice [2]) [%]	inhibition in vivo at 1 mg/kg (mice [3]) [%]	inhibition in vivo at 20 mg/kg (mice [2]; 20 mg/kg) [%]
COc1ccccc1N1CCN(CCCCOc2ccc(Cn3cncn3)cc2)CC1 [Example 2, 1-(2-methoxy-phenyl)-4-[4-(4-[1,2,4]triazol-1-ylmethyl-phenoxy)-butyl]-piperazine]	80.3	93.3			
COc1ccccc1N1CCN(CCCCOc2ccc(CN3CCCCC3)cc2)CC1 [Example 20, 1-(2-methoxy-phenyl)-4-[4-(4-piperidin-1-ylmethyl-phenoxy)-butyl]-piperazine]	68.5		27		
COc1ccccc1N1CCN(CCCCOc2ccc(CCn3cncn3)cc2)CC1 [Example 48, 1-(2-methoxy-phenyl)-4-{4-[4-(2-[1,2,4]triazol-1-yl-ethyl)-phenoxy]-butyl}-piperazine]	48	31.3		26.2	
COc1ccccc1N1CCN(CCCCOc2ccc(Cn3nccn3)cc2)CC1 [Example 11, 1-(2-methoxy-phenyl)-4-[4-(4-[1,2,3]triazol-2-ylmethyl-phenoxy)-butyl]-piperazine]	61.8		69	25	
COc1ccccc1N1CCN(CCCCOc2ccc(Cn3ccnc3)cc2)CC1 [Example 1, 1-[4-(4-imidazol-1-ylmethyl-phenoxy)-butyl]-4-(2-methoxy-phenyl)-piperazine]	83.1	28.7			
O=C1CC2(CCCC2)CC(=O)N1CCCCN1CCN(c2ncccn2)CC1 [Buspirone, reference compound]					56
COc1ccccc1N1CCN(CCCCOc2ccc(CN(C)C)cc2)CC1 [Example 19, (4-{4-[4-(2-methoxy-phenyl)-piperazin-1-yl]-butoxy}-benzyl)-dimethyl-amine dihydrochloride]	59.6		50.8	50.6	
COc1ccccc1N1CCN(CCCCOc2ccc(CCn3ccnn3)cc2)CC1 [Example 50, 1-(2-methoxy-phenyl)-4-{4-[4-(2-[1,2,3]triazol-1-yl-ethyl)-phenoxy]-butyl}-piperazine]	51		96.8	46.9	
COc1ccccc1N1CCN(CCCCOc2cccc(Cn3cnnn3)c2)CC1 [Example 7, 1-(2-methoxy-phenyl)-4-[4-(3-tetrazol-1-ylmethyl-phenoxy)-butyl]-piperazine hydrochloride]	78.4		61.1	21.1	
CN(C)Cc1ccc(OCCCCN2CCN(c3cccc(Cl)c3Cl)CC2)cc1 [Example 39, (4-{4-[4-(2,3-dichloro-phenyl)-piperazin-1-yl]-butoxy}-benzyl)-dimethyl-amine]	52.9			30.4	
COc1ccccc1N1CCN(CCCCOc2cccc(Cn3ccnc3)c2)CC1 [Example 5, 1-[4-(3-imidazol-1-ylmethyl-phenoxy)-butyl]-4-(2-methoxy-phenyl)-piperazine-hydrochloride]	50.7		60.3	21.2	
COc1ccccc1N1CCN(CCCCOc2ccc(CCn3cnnn3)cc2)CC1 [Example 52, 1-(2-methoxy-phenyl)-4-{4-[4-(2-tetrazol-1-yl-ethyl)-phenoxy]-butyl}-piperazine]	62			26.4	
COc1ccccc1N1CCN(CCCCOc2ccc(CCn3ncnn3)cc2)CC1 [Example 51, 1-(2-methoxy-phenyl)-4-{4-[4-(2-tetrazol-2-yl-ethyl)-phenoxy]-butyl}-piperazine]	47		44.4	14.7	
COc1ccccc1N1CCN(CCCCOc2ccc(CNc3ccccc3)cc2)CC1 [Example 21, (4-{4-[4-(2-methoxy-phenyl)-piperazin-1-yl]-butoxy}-benzyl)-phenyl-amine]	38.2	29.9			
Clc1cccc(N2CCN(CCCCOc3ccc(CN4CCOCC4)cc3)CC2)c1Cl [Example 40, 4-(4-{4-[4-(2,3-Dichloro-phenyl)-piperazin-1-yl]-butoxy}-benzyl)-morpholine]	45.6			10.6	
COc1ccccc1N1CCN(CCCCOc2cccc(Cn3ncnn3)c2)CC1 [Example 8, 1-(2-methoxy-phenyl)-4-[4-(3-tetrazol-2-ylmethyl-phenoxy)-butyl]-piperazine hydrochloride]	81.6			19.6	
COc1ccccc1N1CCN(CCCCOc2ccc(Cn3nnnc3C)cc2)CC1 [Example 18, 1-(2-methoxy-phenyl)-4-{4-[4-(5-methyl-tetrazol-1-ylmethyl)-phenoxy]-butyl}-piperazine]	69.5			14.7	
COc1ccccc1N1CCN(CCCCOc2ccc(Cn3ccnn3)cc2)CC1 [Example 12, 1-(2-methoxy-phenyl)-4-[4-(4-[1,2,3]triazol-1-ylmethyl-phenoxy)-butyl]-piperazine]	60.9	97.3		12.7	
COc1ccccc1N1CCN(CCCCOc2cccc(CN(C)C)c2)CC1 [Example 28, (3-{4-[4-(2-methoxy-phenyl)-piperazin-1-yl]-butoxy}-benzyl)-dimethyl-amine]	13.5	24.6			
Clc1cccc(N2CCN(CCCCOc3ccc(Cn4ncnn4)cc3)CC2)c1Cl [Example 36, 1-(2,3-dichloro-phenyl)-4-[4-(4-tetrazol-2-ylmethyl-phenoxy)-butyl]-piperazine]	28.1	25.3			
COc1ccccc1N1CCN(CCCCOc2cccc(Cn3nccn3)c2)CC1 [Example 24, 1-(2-methoxy-phenyl)-4-[4-(3-[1,2,3]triazol-2-ylmethyl-phenoxy)-butyl]-piperazine]	51.6	62.6			
CN(C)Cc1ccc(OCCCCN2CCN(c3ccccc3Cl)CC2)cc1 [Example 33, (4-{4-[4-(2-Chloro-phenyl)-piperazin-1-yl]-butoxy}-benzyl)-dimethyl-amine]	53.7			26.8	
COc1ccccc1N1CCN(CCCCOc2ccc(CCn3ccnc3)cc2)CC1 [Example 47, 1-{4-[4-(2-imidazol-1-yl-ethyl)-phenoxy]-butyl}-4-(2-methoxy-phenyl)-piperazine]	70	39.3			
COc1ccccc1N1CCN(CCCCOc2ccc(CN3CCOCC3)cc2)CC1 [Example 32, 4-(4-{4-[4-(2-methoxy-phenyl)-piperazin-1-yl]-butoxy}-benzyl)-morpholine]			27.8		
CN1CCN(Cc2ccc(OCCCCN3CCN(c4cccc(Cl)c4Cl)CC3)cc2)CC1 [Example 41]	82.1			14.1	
